Data taken from patent US9067894B1, “Compound, composition, and method of activating GIRK potassium channel and use of same for treating conditions of interest” (Vanderbilt University, priority 2013, dated 2015).
“Also recorded” adds a separate entry of the source.

How the values were obtained:
[1] = biological target: T1, Histamine H3 (Homo sapiens, UniProt Q9Y5N1); test: Radioligand displacement (Ricerca); format: binding
T1 construct: Ricerca (contract laboratory that ran the panel)

[2] = system: L-Type Ca channel (benzothiazepine); test: Radioligand displacement (Ricerca); format: binding, rat; details: 10 μM
[3] = biological target: T2, Transporter, NET (Homo sapiens, UniProt P23975); test: Radioligand displacement (Ricerca); format: binding
T2 construct: Ricerca (contract panel)
T2 sequence (P23975 whole entry): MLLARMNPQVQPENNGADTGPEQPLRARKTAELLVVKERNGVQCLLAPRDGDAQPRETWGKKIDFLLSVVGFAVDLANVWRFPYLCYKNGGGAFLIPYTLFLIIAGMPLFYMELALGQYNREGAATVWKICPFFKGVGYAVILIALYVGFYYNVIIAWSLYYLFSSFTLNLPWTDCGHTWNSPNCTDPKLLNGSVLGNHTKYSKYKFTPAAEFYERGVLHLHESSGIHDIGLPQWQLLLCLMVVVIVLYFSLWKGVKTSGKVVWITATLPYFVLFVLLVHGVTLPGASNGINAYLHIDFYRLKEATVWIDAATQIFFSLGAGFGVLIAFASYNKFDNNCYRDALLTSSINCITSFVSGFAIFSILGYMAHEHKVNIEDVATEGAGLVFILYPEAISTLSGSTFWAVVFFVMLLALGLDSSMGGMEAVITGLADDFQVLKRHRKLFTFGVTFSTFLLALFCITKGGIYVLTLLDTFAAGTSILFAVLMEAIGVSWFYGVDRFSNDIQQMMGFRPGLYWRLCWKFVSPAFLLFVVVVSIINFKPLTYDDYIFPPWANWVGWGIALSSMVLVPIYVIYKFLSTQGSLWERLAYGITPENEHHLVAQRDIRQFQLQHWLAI

[4] = biological target: T3, Adrenergic β2 (Homo sapiens, UniProt P07550); test: Radioligand displacement (Ricerca); format: binding
T3 construct: Ricerca
T3 sequence (P07550 whole entry): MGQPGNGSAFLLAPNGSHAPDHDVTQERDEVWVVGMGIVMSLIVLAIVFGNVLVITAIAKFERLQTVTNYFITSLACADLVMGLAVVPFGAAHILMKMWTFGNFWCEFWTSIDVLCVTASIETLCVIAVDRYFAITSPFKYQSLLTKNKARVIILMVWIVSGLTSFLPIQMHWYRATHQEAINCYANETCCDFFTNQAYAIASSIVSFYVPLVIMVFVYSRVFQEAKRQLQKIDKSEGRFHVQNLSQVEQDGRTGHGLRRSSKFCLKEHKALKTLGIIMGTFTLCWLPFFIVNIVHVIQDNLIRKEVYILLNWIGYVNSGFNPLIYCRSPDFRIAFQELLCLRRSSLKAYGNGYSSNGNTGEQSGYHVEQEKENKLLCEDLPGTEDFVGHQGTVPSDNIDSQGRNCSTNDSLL

[5] = system: Glutamate (NMDA agonism); test: Radioligand displacement (Ricerca); format: binding, rat; details: 10 μM
[6] = biological target: T4, Serotonin 5-HT2B (Homo sapiens, UniProt P41595); test: Radioligand displacement (Ricerca); format: binding
T4 construct: Ricerca (contract panel)
T4 sequence (P41595 whole entry): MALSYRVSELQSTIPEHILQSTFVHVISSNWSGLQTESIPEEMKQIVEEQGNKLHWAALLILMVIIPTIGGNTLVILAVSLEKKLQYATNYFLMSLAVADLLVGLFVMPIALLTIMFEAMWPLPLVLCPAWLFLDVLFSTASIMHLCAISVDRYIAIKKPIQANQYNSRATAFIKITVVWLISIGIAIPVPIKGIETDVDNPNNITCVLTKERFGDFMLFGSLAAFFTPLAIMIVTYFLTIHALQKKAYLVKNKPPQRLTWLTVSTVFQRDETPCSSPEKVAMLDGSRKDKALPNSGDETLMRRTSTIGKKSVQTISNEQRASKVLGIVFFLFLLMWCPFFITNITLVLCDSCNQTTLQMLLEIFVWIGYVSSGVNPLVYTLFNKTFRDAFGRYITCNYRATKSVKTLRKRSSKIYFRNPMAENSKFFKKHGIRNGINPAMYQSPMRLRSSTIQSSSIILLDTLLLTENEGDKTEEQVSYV

[7] = biological target: T5, Glutamate (NMDA, glycine) (Rattus norvegicus, UniProt P35439); test: Radioligand displacement (Ricerca); format: binding
T5 construct: Ricerca

[8] = biological target: T6, Andreogen (Rattus norvegicus, UniProt P15207); test: Radioligand displacement (Ricerca); format: binding
T6 construct: Ricerca
T6 sequence (P15207 whole entry S389L): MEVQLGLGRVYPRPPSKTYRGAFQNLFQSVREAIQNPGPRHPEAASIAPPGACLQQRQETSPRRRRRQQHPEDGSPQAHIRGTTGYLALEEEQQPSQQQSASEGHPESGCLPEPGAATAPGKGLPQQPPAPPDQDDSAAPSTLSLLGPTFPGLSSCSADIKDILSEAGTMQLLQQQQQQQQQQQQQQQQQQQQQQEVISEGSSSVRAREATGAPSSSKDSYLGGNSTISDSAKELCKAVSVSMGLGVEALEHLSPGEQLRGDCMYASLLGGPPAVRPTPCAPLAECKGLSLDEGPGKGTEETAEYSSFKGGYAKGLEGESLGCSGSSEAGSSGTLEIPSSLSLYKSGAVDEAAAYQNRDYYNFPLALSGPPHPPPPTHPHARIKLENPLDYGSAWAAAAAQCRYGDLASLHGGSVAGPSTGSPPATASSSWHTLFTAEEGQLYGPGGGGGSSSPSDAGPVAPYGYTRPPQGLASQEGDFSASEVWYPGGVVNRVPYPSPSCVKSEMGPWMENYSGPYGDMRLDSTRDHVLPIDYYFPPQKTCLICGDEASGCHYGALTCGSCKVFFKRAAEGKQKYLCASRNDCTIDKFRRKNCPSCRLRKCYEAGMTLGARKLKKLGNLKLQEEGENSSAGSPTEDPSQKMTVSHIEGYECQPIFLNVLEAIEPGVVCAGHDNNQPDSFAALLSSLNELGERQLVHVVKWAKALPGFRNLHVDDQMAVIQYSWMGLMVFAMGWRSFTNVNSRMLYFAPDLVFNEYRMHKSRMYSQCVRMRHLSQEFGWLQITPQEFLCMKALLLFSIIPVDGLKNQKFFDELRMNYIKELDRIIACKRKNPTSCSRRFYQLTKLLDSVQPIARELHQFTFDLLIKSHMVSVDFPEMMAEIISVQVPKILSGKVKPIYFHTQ

[9] = biological target: T7, Adrenergic α1B (Rattus norvegicus, UniProt P15823); test: Radioligand displacement (Ricerca); format: binding
T7 construct: Ricerca (contract assay)

[10] = biological target: T8, Kv7.4 (Homo sapiens, UniProt P56696); test: Thallium flux assay, Kv7.4-expressing cells; format: cell-based
T8 construct: expressed in transfected cells; host or cells: HEK-293
Text: Cell Line Construction and Cell Culture. HEK-293 cells co-expressing human GIRK1/2 and rat mGlu8 were generated as previously described (Niswender et al., 2008). A HEK-293 cell line (ATCC, Manassas, Va.) expressing human GIRK1 and human GIRK2 was constructed by transfecting HEK-293 cells with GIRK1 and GIRK2 (Origene, Rockville, Md.) cloned into the pBudCE4.1 vector (Life Technologies, Carlsbad, Calif.) using FuGene 6 (Promega, Madison, Wis.) transfection reagent. Unless otherwise noted, other ion channel-expressing cells were prepared by transfecting HEK-293 cells with individual or combinations of subunits: GIRK1, pCMV6-A-BSD; GIRK2, pCMV6-A-puro; GIRK3, pCMV6-A-hygro; GIRK4, pCMV6-A-AC; Kv7.4, pIRESneo3. The Kir2.1 and hERG-expressing cell lines were made by transfecting T-REx-293 cells (Life Technologies, Carlsbad, Calif.) with Kir2.1 and Kv11.1, respectively, cloned into pcDNA5TO. Monoclonal cell lines were produced by limiting-dilution cloning of antibiotic-resistant cells and functional selection using the thallium flux assay described below. Unless otherwise noted, cells were maintained in Minimal Essential Medium, Alpha Medium (Mediatech, Manassas, Va.) supplemented with 10% fetal bovine serum (Sigma-Aldrich, Saint Louis, Mo.) and GlutaGro (Mediatech, Manassas, Va.), referred to henceforth as cell culture medium. […]

[11] = biological target: T9, Adrenergic α1A (Rattus norvegicus, UniProt P43140); test: Radioligand displacement (Ricerca); format: binding
T9 construct: Ricerca (contract assay)
T9 sequence (P43140 whole entry): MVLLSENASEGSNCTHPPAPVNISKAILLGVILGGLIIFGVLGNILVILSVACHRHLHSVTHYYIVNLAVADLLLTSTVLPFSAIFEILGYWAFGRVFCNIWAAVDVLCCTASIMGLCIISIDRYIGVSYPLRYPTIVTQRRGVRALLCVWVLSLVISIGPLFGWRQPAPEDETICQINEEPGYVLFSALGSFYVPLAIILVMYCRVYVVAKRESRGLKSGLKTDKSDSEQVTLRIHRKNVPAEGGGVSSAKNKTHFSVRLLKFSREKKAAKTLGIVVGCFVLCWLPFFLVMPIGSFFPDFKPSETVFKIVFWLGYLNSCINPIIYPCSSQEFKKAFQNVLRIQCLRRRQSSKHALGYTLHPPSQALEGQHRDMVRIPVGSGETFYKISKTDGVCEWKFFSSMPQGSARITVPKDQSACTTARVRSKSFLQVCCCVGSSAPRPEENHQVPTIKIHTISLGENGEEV

[12] = biological target: T10, Neuropeptide Y (Y2) (Homo sapiens, UniProt P49146); test: Radioligand displacement (Ricerca); format: binding
T10 construct: Ricerca (contract laboratory that ran the panel)
T10 sequence (P49146 whole entry): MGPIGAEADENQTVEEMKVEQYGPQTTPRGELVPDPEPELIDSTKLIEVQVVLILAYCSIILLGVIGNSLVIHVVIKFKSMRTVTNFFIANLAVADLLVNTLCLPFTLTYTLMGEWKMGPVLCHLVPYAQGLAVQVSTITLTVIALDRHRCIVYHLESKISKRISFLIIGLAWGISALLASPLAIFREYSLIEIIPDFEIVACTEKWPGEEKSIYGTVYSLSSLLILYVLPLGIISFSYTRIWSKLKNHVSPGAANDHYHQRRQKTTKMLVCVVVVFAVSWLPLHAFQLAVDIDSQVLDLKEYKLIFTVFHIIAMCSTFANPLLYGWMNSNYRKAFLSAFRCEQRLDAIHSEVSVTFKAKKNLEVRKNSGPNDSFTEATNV

[13] = Maximal electroshock (MES) model of epilepsy; format: in vivo, mouse; details: mice, i.p.; VU0456810 60 mg/kg, sodium valproate 150 mg/kg; vs vehicle
Protocol: MES stimulation was applied, 30 minutes after injection, through transauricular (ear-clip) electrodes from an electroshock apparatus, HSE Shock Stimulator Type 221, (Harvard Apparatus, Holliston, Mass.) using the following parameters: 100-mA fixed current, a 50-60-Hz pulse frequency, a 0.6-ms pulse width and a 0.3-s stimulus duration. Animals were restrained by hand when applying the electrodes and released at the moment of stimulation to permit observation of the seizure throughout its entire course. Upon completion of the electrical stimulus, the amount of time until death was recorded. […] In this modified MES test, the electrical stimulus that was applied was sufficient to induce seizures and death from maximal seizure in 100% of the control mice.
In all cases, experiments were conducted in a blind manner with respect to the experimenters. Data were evaluated in Excel using one-tailed, unpaired Student's t-test, assuming populations with unequal variance.

[14] = biological target: T11, Serotonin 5-HT3 (Homo sapiens, UniProt P46098); test: Radioligand displacement (Ricerca); format: binding
T11 construct: Ricerca (contract panel)
T11 sequence (P46098 24-478): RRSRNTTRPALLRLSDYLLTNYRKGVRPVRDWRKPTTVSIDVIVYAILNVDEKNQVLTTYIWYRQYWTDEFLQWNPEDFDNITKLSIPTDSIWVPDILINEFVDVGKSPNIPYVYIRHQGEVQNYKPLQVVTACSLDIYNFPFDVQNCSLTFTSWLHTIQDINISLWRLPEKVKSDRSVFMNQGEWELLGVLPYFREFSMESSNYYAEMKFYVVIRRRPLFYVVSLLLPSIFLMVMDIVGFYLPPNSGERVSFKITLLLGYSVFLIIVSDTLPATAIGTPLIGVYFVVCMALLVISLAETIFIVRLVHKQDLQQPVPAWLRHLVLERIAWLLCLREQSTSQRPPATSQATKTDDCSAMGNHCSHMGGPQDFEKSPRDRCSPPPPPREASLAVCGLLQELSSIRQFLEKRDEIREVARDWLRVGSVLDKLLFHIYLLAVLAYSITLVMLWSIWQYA

[15] = biological target: T12, Prostanoid EP4 (Homo sapiens, UniProt P35408); test: Radioligand displacement (Ricerca); format: binding
T12 construct: Ricerca (contract laboratory that ran the panel)
T12 sequence (P35408 whole entry): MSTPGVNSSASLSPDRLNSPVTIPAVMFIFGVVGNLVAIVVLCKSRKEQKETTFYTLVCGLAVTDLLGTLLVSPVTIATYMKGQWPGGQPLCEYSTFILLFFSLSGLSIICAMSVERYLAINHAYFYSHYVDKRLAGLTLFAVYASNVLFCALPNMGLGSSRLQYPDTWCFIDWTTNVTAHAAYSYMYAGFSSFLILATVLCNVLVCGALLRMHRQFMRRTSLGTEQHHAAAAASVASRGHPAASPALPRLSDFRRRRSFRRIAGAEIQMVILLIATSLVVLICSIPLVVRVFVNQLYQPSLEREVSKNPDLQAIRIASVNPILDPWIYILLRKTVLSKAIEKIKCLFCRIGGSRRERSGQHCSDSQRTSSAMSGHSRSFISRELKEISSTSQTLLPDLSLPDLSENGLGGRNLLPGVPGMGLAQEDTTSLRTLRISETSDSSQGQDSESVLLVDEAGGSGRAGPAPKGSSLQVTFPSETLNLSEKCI

T1 sequence (Q9Y5N1 whole entry): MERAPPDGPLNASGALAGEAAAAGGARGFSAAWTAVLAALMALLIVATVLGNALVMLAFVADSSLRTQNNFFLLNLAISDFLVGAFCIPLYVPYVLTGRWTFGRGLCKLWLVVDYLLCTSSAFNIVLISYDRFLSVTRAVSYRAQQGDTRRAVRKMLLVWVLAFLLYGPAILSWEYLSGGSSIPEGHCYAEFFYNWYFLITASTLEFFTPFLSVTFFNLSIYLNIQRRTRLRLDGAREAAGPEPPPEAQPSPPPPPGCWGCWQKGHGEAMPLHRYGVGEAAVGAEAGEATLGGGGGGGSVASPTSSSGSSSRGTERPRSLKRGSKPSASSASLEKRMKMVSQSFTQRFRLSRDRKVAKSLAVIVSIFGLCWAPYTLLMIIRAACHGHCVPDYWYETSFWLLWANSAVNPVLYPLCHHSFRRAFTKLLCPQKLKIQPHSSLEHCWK

**Q.** Which results are given for Cc1cc(NC(=O)Nc2ccc(F)c(F)c2)n(-c2ccccc2)n1 [VU0456810, 1-(3,4-difluorophenyl)-3-(3-methyl-1-phenyl-1H-pyrazol-5-yl)urea]?
**A.** inhibition at 10 µM [1]: 1%; % Inhibition [2]: 1%; inhibition at 10 µM [3]: 15%; inhibition at 10 µM [4]: -5%; % Inhibition [5]: 21%; inhibition at 10 µM [6]: < 50%; % Inhibition ([6]; 10 μM): 46%; inhibition at 10 µM [7]: -25%; inhibition at 10 µM [8]: 0%; inhibition at 10 µM [9]: 1%; Potency [10]: Inactive; inhibition at 10 µM [11]: 4%; inhibition at 10 µM [12]: -5%; latency of seizure onset [13]: robust increase; also recorded: highly significant delays in seizure onset; inhibition at 10 µM [14]: 1%; inhibition at 10 µM [15]: -4%
